Experimental data: article PMC11192711, “Automated radiosynthesis and preclinical evaluation of two new PSMA-617 derivatives radiolabelled via [^18F]AlF^2+ method” (EJNMMI Radiopharmacy and Chemistry, 2024)

Tests used:
[1] = system: Gli36ΔEGFR tumours-bearing nude mice; experiment: PET/CT in vivo biodistribution and tumour uptake in orthotopic Gli36ΔEGFR glioma model; details: n = 3; for Bone (SUV mean) / Brain (SUV mean) / Colon (SUV mean) / Gall bladder (SUV mean) / Heart (SUV mean) / Kidney (SUV mean) / Liver (SUV mean) / Lung (SUV mean) / Muscle (SUV mean) / Salivary gland (SUV mean) / Small instestine (SUV mean): Gli36ΔEGFR female nude mice, i.v., PET/CT; for tumour-to-contralateral healthy brain ratio (tumour SUV max/contralateral SUV mean): Gli36ΔEGFR orthotopic glioma, nude mice
Procedure: Subsequently, we evaluated the uptake of [^18F]F-PSMA-617-NODA ([^18F]1) and [^18F]F-PSMA-617-RESCA ([^18F]2) in an orthotopic glioma model obtained with Gli36ΔEGFR cells in female nude mice. Gli36ΔEGFR tumours-bearing nude mice (n = 3) were injected i.v. with either [^18F]F-PSMA-617-NODA or [^18F]F-PSMA-617-RESCA (~ 3.8 MBq/mouse, ~ 50 pmol for [^18F]1 and ~ 170 pmol [^18F]2). Radiotracer uptake was assessed after 10, 60 and 120 min post injection by whole-body PET/CT acquisitions. Also in nude female mice, a rapid clearance of [^18F]1 in all organs and the same kinetic observed in NSG male mice (Additional file 1: S71A and B) were confirmed. […] It is interesting to note that the uptake of [^18F]1 in kidneys decreased over time in both models (Additional file 1: S71A and B), while the uptake of [^18F]F-PSMA-1007 in NSG model and [^18F]2 in nude female mice model increased (Additional file 1: S71C and D).
Total body biodistribution of [^18F]F-PSMA-1007, [^18F]F-PSMA-617-NODA and [^18F]F-PSMA-617-RESCA was evaluated in vivo using imaging PET/CT. [^18F]F-PSMA-617-NODA uptake was compared to that of the [^18F]F-PSMA-1007 in a PSMA positive prostate tumour xenograft model (LNCaP). [^18F]F-PSMA-617-NODA and [^18F]F-PSMA-617-RESCA uptake were also evaluated using an orthotopic glioma model (Gli36ΔEGFR).
5 × 10^5 Gli36ΔEGFR cells were injected in the right striatum of seven to eight weeks old female nude mice (Envigo RMS s.r.l., Italy) as previously described (Valtorta et al. [2021]). Ten days after mice underwent a T2-weighted Magnetic Resonance Imaging (MRI) using a 7 T small animal magnetic resonance scanner (Bruker, BioSpec 70/30 USR, Paravision 5.1, Germany) to confirm the growth of the tumour. Then, the same mice underwent in vivo biodistribution of [^18F]F-PSMA-617-NODA and [^18F]F-PSMA-617-RESCA, on successive but non-consecutive days, using PET/CT.
Mice were injected into a tail vein with 3.8 ± 0.1 MBq of [^18F]F-PSMA-1007, 4.0 ± 0.2 MBq of [^18F]F-PSMA-617-NODA ([^18F]1) and 3.8 ± 0.1 MBq of [^18F]F-PSMA-617-RESCA ([^18F]2), respectively.
Total body PET/CT acquisitions were performed using PET/CT tomographs dedicated to small animals, X-ß-CUBE (Molecubes, Gent, Belgium) after 10, 60 and 120 min from tracer injection. Each acquisition lasted 30 min and mice were maintained anesthetized (4% isoflurane in induction and 2% in maintenance in air) during acquisition.
Image quantification analysis was performed with PMOD 4.105 software (Zurich, Switzerland). Volumes of interest (VOIs) were drawn on peripheral organs (tumour, thoracic muscle, heart, liver, kidney, salivary glands, lung, small intestine, colon, bone, gall bladder) and on the healthy brain using CT images. For the glioma model, PET/CT images were co-registered to MRI images and two different VOIs were defined: (1) a control VOI covering the healthy left striatum (volume 4 mm^3) was drawn on the axial MR images, adjusted on the other imaging planes and then copied on the PET images of each mouse; (2) a second glioma-covering VOI was drawn in the tumour-affected brain hemisphere and centered on mice lesions.
For quantification, Standardized Uptake Value (SUV) was calculated according to the formula:
SUV = organ concentration activity [MBq/g]/(injected activity [MBq]/animal weight [g]).
The data were expressed as standardized-uptake-values (SUVmean and SUVmax) and as tumour-to-muscle (T/M) and tumour-to-blood (T/B) ratio in PCa model and as tumour-to-contralateral (T/Cl) ratio in glioma model.

[2] = Stability in final solution (analytical HPLC and radio-TLC); assay type: physicochemical; details: up to four hours after end of radiosynthesis, room temperature, HPLC and radio-TLC
Procedure: Chemical and radiochemical stability in the final solution were tested by analytical HPLC and radio-TLC (Additional file 1: S37–S41); samples of the purified product were analyzed up to four hours after the end of radiosynthesis, at time intervals of two hours and storing the vial at room temperature.
Stability in solution of [^18F]F-PSMA-617-NODA ([^18F]1) and [^18F]F-PSMA-617-RESCA ([^18F]2) were evaluated injecting in RP-HPLC (for experimental conditions, see sections “(((S)-5-((S)-2-((1R,4S)-4-((4-(4,7-bis(carboxymethyl)-1,4,7-triazonan-1-yl)butanamido)methyl)cyclohexane-1-carboxamido)-3-(naphthalen-2-yl)propanamido)-1-carboxypentyl)carbamoyl)-L-glutamic acid [^18F] aluminium fluoride ([^18F] 1)” and “(((S)-5-((S)-2-((1R,4S)-4-((2-(4-((((1R,2R)-2-(bis(carboxymethyl)amino)cyclohexyl)(carboxymethyl)amino)methyl)phenyl)acetamido)methyl)cyclohexane-1-carboxamido)-3-(naphthalen-2-yl)propanamido)-1-carboxypentyl)carbamoyl)-L-glutamic acid [18F] aluminium fluoride ([18F] 2)”) samples (20 µl) of respective radiopharmaceutical solutions at t = 0 (EOS), after 2 h and after 4 h. Moreover, ≈ 7.5 kBq of [^18F]1 or [^18F]2 solution were deposited on TLC sheet. The TLC was imaged using Cyclone® Plus Phosphor Scanner and software OptiQuant™.

O=C(O)CCC(NC(=O)NC(CCCCNC(=O)C(Cc1ccc2ccccc2c1)NC(=O)C1CCC(CNC(=O)CCCN2CCN(CC(=O)O)CCN(CC(=O)O)CC2)CC1)C(=O)O)C(=O)O.[18F][Al] [[^18F]F-PSMA-617-NODA, (((S)-5-((S)-2-((1R,4S)-4-((4-(4,7-bis(carboxymethyl)-1,4,7-triazonan-1-yl)butanamido)methyl)cyclohexane-1-carboxamido)-3-(naphthalen-2-yl)propanamido)-1-carboxypentyl)carbamoyl)-L-glutamic acid [^18F] aluminium fluoride]
Bone (SUV mean) ([1]; 10 min p.i.): 0.18 ± 0.09
Brain (SUV mean) ([1]; 10 min p.i.): 0.06 ± 0.01
Colon (SUV mean) ([1]; 10 min p.i.): 0.37 ± 0.08
Gall bladder (SUV mean) ([1]; 10 min p.i.): 0.33 ± 0.11
Heart (SUV mean) ([1]; 10 min p.i.): 0.26 ± 0.05
Kidney (SUV mean) ([1]; 10 min p.i.): 13.11 ± 1.60
Liver (SUV mean) ([1]; 10 min p.i.): 0.22 ± 0.01
Lung (SUV mean) ([1]; 10 min p.i.): 0.20 ± 0.04
Muscle (SUV mean) ([1]; 10 min p.i.): 0.14 ± 0.01
Salivary gland (SUV mean) ([1]; 10 min p.i.): 0.54 ± 0.17
Small instestine (SUV mean) ([1]; 10 min p.i.): 0.32 ± 0.05
Bone (SUV mean) ([1]; 60 min p.i.): 0.13 ± 0.08
Brain (SUV mean) ([1]; 60 min p.i.): 0.03 ± 0.01
Colon (SUV mean) ([1]; 60 min p.i.): 0.27 ± 0.13
Gall bladder (SUV mean) ([1]; 60 min p.i.): 0.10 ± 0.03
Heart (SUV mean) ([1]; 60 min p.i.): 0.10 ± 0.03
Kidney (SUV mean) ([1]; 60 min p.i.): 13.32 ± 2.23
Liver (SUV mean) ([1]; 60 min p.i.): 0.11 ± 0.01
Lung (SUV mean) ([1]; 60 min p.i.): 0.09 ± 0.04
Muscle (SUV mean) ([1]; 60 min p.i.): 0.07 ± 0.01
Salivary gland (SUV mean) ([1]; 60 min p.i.): 0.24 ± 0.09
Small instestine (SUV mean) ([1]; 60 min p.i.): 0.25 ± 0.06
Bone (SUV mean) ([1]; 120 min p.i.): 0.12 ± 0.09
Brain (SUV mean) ([1]; 120 min p.i.): 0.02 ± 0.01
Colon (SUV mean) ([1]; 120 min p.i.): 0.16 ± 0.03
Gall bladder (SUV mean) ([1]; 120 min p.i.): 0.04 ± 0.01
Heart (SUV mean) ([1]; 120 min p.i.): 0.04 ± 0.002
Kidney (SUV mean) ([1]; 120 min p.i.): 9.30 ± 3.60
Liver (SUV mean) ([1]; 120 min p.i.): 0.05 ± 0.01
Lung (SUV mean) ([1]; 120 min p.i.): 0.04 ± 0.01
Muscle (SUV mean) ([1]; 120 min p.i.): 0.03 ± 0.01
Salivary gland (SUV mean) ([1]; 120 min p.i.): 0.08 ± 0.04
Small instestine (SUV mean) ([1]; 120 min p.i.): 0.15 ± 0.06
tumour-to-contralateral healthy brain ratio (tumour SUV max/contralateral SUV mean) ([1]; 60 min p.i.): 7.75 ± 3.06
tumour-to-contralateral healthy brain ratio (tumour SUV max/contralateral SUV mean) ([1]; 120 min p.i.): 10.92 ± 3.56
Chemical and radiochemical stability in the final solution ([2]; listed as [^18F]1): stable and no loss of radioactivity due to radiolytic degradation and aluminum fluoride release were detected
Chemical and radiochemical stability in the final solution ([2]; listed as [^18F]PSMA-617-NODA): neither the release of [^18F]AlF^2+ in solution, nor the formation of other degradation by-products was noticed
